{"source": "paper PMC4689772", "about": "“The Effect of Excipients on the Permeability of BCS Class III Compounds and Implications for Biowaivers” (Pharmaceutical Research, 2015)", "key": {"[1]": {"assay": "in vitro", "conditions": "Caco-2", "method": "Samples were collected from the donor and receiver chambers at multiple time points and analyzed by LC-MS/MS.\nBidirectional permeability was measured in the absence of excipients only (n = 3 replicates), whereas unidirectional permeability was measured both in the presence and absence of excipients (n = 4 replicates)."}, "[2]": {"assay": "Unidirectional (A→B) permeability across Caco-2 cell monolayers in presence and absence of excipients", "conditions": "human, Caco-2, Apparent permeability coefficient (Papp), mean ± SEM, n = 4"}, "[3]": {"assay": "Bidirectional permeability across Caco-2 cell monolayers (no excipients)", "conditions": "human; for recovery: Caco-2, no excipients, cassette, mean ± SD, n = 3"}, "[4]": {"assay": "Recirculating in situ rat intestinal perfusion (jejunum) in presence and absence of excipients", "conditions": "Sprague-Dawley, pH 6.8, Effective permeability coefficient (Peff), mean ± SEM, n = 4", "method": "(§1) Sprague–Dawley rats (300–350 g) were used to perform closed-loop, in situ intestinal perfusion. Rats were fasted for 12–18 h before the experiment, and water was supplied ad libitum.\n(§2) Four rats (n = 4) were used per treatment group, with a total of 17 groups: one control group (assay buffer, no excipients) and three or four treatment groups for each of the five excipients, with a different concentration for each group.\n(§3) Rats were anesthetized with an intraperitoneal injection of ketamine/xylazine (1 ml/kg) and placed on a heating pad to maintain normal body temperature. After making a midline incision, the intestines were externalized. A 10-cm segment of the jejunum was tied off, cannulated at both ends to form a loop, and flushed with saline and air. The loop was equilibrated statically with dosing solution for 30 min, then flushed with air and perfused by recirculation (peristaltic pump) with 10 ml dosing solution at 0.2 ml/min. Samples of the perfusate were taken from the reservoir at 15, 30, 45, 60, 75, and 90 min for analysis by LC-MS/MS."}, "[5]": {"assay": "in vivo", "conditions": "Sprague-Dawley, rat, pH 6.8, Effective permeability coefficient (Peff), rat jejunum, mean ± SEM, n = 4", "method": "as §1, §2, §3"}}, "data": [{"smiles": "CC(C)(C)NCC(O)COc1cccc2c1CC(O)C(O)C2", "note": "(stereo not shown) [Nadolol, nadolol]", "values": [{"measurement": "Papp A→B", "setting": "[1]", "result": "33 ± 0.7", "unit": "×10⁻⁶ cm/s"}, {"measurement": "Papp A→B", "setting": "[2]; Control a (no excipient)", "result": "0.21 ± 0.06", "unit": "×10⁻⁶ cm/s"}, {"measurement": "Papp A→B", "setting": "[2]; Control b (no excipient)", "result": "0.21 ± 0.04", "unit": "×10⁻⁶ cm/s"}, {"measurement": "Papp A→B", "setting": "[2]; D-Lactose 1.0 mg/ml (control set b)", "result": "0.14 ± 0.05", "unit": "×10⁻⁶ cm/s"}, {"measurement": "Papp A→B", "setting": "[2]; D-Lactose 2.0 mg/ml (control set b)", "result": "0.13 ± 0.01", "unit": "×10⁻⁶ cm/s"}, {"measurement": "Papp A→B", "setting": "[2]; HPMC 0.06 mg/ml (control set a)", "result": "0.14 ± 0.05", "unit": "×10⁻⁶ cm/s"}, {"measurement": "Papp A→B", "setting": "[2]; HPMC 1.0 mg/ml (control set b)", "result": "0.13 ± 0.05", "unit": "×10⁻⁶ cm/s"}, {"measurement": "Papp A→B", "setting": "[2]; HPMC 2.0 mg/ml (control set b)", "result": "0.11 ± 0.02", "unit": "×10⁻⁶ cm/s"}, {"measurement": "Papp A→B", "setting": "[2]; PEG 400 0.06 mg/ml (control set a)", "result": "0.13 ± 0.01", "unit": "×10⁻⁶ cm/s"}, {"measurement": "Papp A→B", "setting": "[2]; PEG 400 […] (control set a)", "result": "0.14 ± 0.04", "unit": "×10⁻⁶ cm/s"}, {"measurement": "Papp A→B", "setting": "[2]; PEG 400 […] (control set b)", "result": "0.27 ± 0.04", "unit": "×10⁻⁶ cm/s"}, {"measurement": "Papp A→B", "setting": "[2]; Povidone 0.06 mg/ml (control set a)", "result": "0.09 ± 0.02", "unit": "×10⁻⁶ cm/s"}, {"measurement": "Papp A→B", "setting": "[2]; Povidone 0.2 mg/ml (control set b)", "result": "0.15 ± 0.05", "unit": "×10⁻⁶ cm/s"}, {"measurement": "Papp A→B", "setting": "[2]; SLS 0.01 mg/ml (control set a)", "result": "0.23 ± 0.07", "unit": "×10⁻⁶ cm/s"}, {"measurement": "Papp A→B", "setting": "[2]; SLS 0.02 mg/ml (control set a)", "result": "0.31 ± 0.05", "unit": "×10⁻⁶ cm/s"}, {"measurement": "Papp A→B", "setting": "[2]; SLS 0.04 mg/ml (control set a)", "result": "0.31 ± 0.1", "unit": "×10⁻⁶ cm/s"}, {"measurement": "Papp A→B", "setting": "[3]; Caco-2", "result": "0.29 ± 0.16", "unit": "×10⁻⁶ cm/s"}, {"measurement": "Papp B→A", "setting": "[3]; Caco-2", "result": "0.71 ± 0.15", "unit": "×10⁻⁶ cm/s"}, {"measurement": "recovery", "setting": "[3]; Caco-2, A→B Recovery", "result": "83.9 ± 9.1", "unit": "%"}, {"measurement": "recovery", "setting": "[3]; Caco-2, B→A Recovery", "result": "90.7 ± 12.2", "unit": "%"}, {"measurement": "Papp at 90 min", "setting": "[4]; other: closed-loop recirculating in situ jejunal perfusion, HPMC 0.06 mg/ml", "result": "40 ± 7", "unit": "×10⁻⁶ cm/s"}, {"measurement": "Papp at 90 min", "setting": "[4]; other: closed-loop recirculating in situ jejunal perfusion, HPMC […]", "result": "7 ± 17", "unit": "×10⁻⁶ cm/s"}, {"measurement": "Papp at 90 min", "setting": "[4]; other: closed-loop recirculating in situ jejunal perfusion, PEG 400 0.06 mg/ml", "result": "24 ± 8", "unit": "×10⁻⁶ cm/s"}, {"measurement": "Papp at 90 min", "setting": "[4]; other: closed-loop recirculating in situ jejunal perfusion, PEG 400 0.30 mg/ml (first run)", "result": "1 ± 1", "unit": "×10⁻⁶ cm/s"}, {"measurement": "Papp at 90 min", "setting": "[4]; other: closed-loop recirculating in situ jejunal perfusion, PEG 400 […]", "result": "25 ± 8", "unit": "×10⁻⁶ cm/s"}, {"measurement": "Papp at 90 min", "setting": "[4]; other: closed-loop recirculating in situ jejunal perfusion, SLS 0.01 mg/ml", "result": "32 ± 15", "unit": "×10⁻⁶ cm/s"}, {"measurement": "Papp at 90 min", "setting": "[4]; other: closed-loop recirculating in situ jejunal perfusion, SLS 0.02 mg/ml", "result": "37 ± 10", "unit": "×10⁻⁶ cm/s"}, {"measurement": "Papp at 90 min", "setting": "[4]; other: closed-loop recirculating in situ jejunal perfusion, SLS 0.04 mg/ml", "result": "1 ± 2", "unit": "×10⁻⁶ cm/s"}, {"measurement": "Papp at 90 min", "setting": "[4]; Povidone […]", "result": "13 ± 1.5", "unit": "×10⁻⁶ cm/s"}]}, {"smiles": "Cc1cc(=O)n(-c2ccccc2)n1C", "note": "[Antipyrine, antipyrine]", "values": [{"measurement": "Papp at 90 min", "setting": "[5]; Control (no excipient)", "result": "143 ± 17", "unit": "×10⁻⁶ cm/s"}, {"measurement": "Papp at 90 min", "setting": "[5]; HPMC 0.06 mg/ml", "result": "168 ± 35", "unit": "×10⁻⁶ cm/s"}, {"measurement": "Papp at 90 min", "setting": "[5]; PEG 400 0.06 mg/ml", "result": "117 ± 22", "unit": "×10⁻⁶ cm/s"}, {"measurement": "Papp at 90 min", "setting": "[5]; PEG 400 0.30 mg/ml (first run)", "result": "82 ± 15", "unit": "×10⁻⁶ cm/s"}, {"measurement": "Papp at 90 min", "setting": "[5]; PEG 400 0.30 mg/ml, second run", "result": "153 ± 18", "unit": "×10⁻⁶ cm/s"}, {"measurement": "Papp at 90 min", "setting": "[5]; PEG 400 […]", "result": "90 ± 26", "unit": "×10⁻⁶ cm/s"}, {"measurement": "Papp at 90 min", "setting": "[5]; Povidone 0.06 mg/ml", "result": "133 ± 42", "unit": "×10⁻⁶ cm/s"}, {"measurement": "Papp at 90 min", "setting": "[5]; SLS 0.01 mg/ml", "result": "175 ± 23", "unit": "×10⁻⁶ cm/s"}, {"measurement": "Papp at 90 min", "setting": "[5]; SLS 0.02 mg/ml", "result": "93 ± 26", "unit": "×10⁻⁶ cm/s"}, {"measurement": "Papp at 90 min", "setting": "[5]; SLS 0.04 mg/ml", "result": "108 ± 18", "unit": "×10⁻⁶ cm/s"}, {"measurement": "Papp at 90 min", "setting": "[5]; SLS […]", "result": "157 ± 46", "unit": "×10⁻⁶ cm/s"}]}, {"smiles": "Nc1nc2c(ncn2COCCO)c(=O)[nH]1", "note": "[Acyclovir, acyclovir]", "values": [{"measurement": "Papp A→B", "setting": "[1]", "result": "29.8 ± 1.8", "unit": "×10⁻⁶ cm/s"}, {"measurement": "recovery", "setting": "[3]; Caco-2, A→B Recovery", "result": "82.2 ± 8.6", "unit": "%"}, {"measurement": "recovery", "setting": "[3]; Caco-2, B→A Recovery", "result": "94.9 ± 12.2", "unit": "%"}]}]}
